The values that follow come from US20210214285A1, “EMULSION FOR TREATING UREA-CONTAINING FERTILIZERS” (EUROCHEM AGRO GMBH, priority 2018, published 2021).

The conditions of data set [1]: at 20° C.; cited from earlier work.
A short description of data set [2]: Comparative experiment: urea treated with DMPP/NBPT emulsion, degradation on storage (HPLC). Particulars: for amount broken down: after a period of 7 days.
Data set [3] in a line: Storage stability test of treated urea fertilizers (NBPT and DMPSA content over time). Particulars: urea coated with DMPSA/NBPT emulsion (invention, FIG. 2) versus sequential application (comparative, FIG. 1); stored 90 days under standard conditions in a climate-controlled cabinet. It is filed as physicochemical. As for the experimental part: 20 kg of granulated urea was initially charged in a mixer. 35 g of the NBPT formulation and 79 g of DMPSA formulation were introduced into a spray bottle and shaken until a homogeneous emulsion had formed. The formulation emulsion was immediately sprayed onto the urea, with intermittent shaking of the spray bottle in order to prevent settling of the emulsion. The mixer was operated for a further 10 minutes until a homogeneous product was obtained.
In a comparative experiment, identical amounts of DMPSA and NBPT were applied to urea. DMPSA formulation was applied first to the urea by the method described above, and the NBPT formulation was applied after drying.
Storage stability tests were conducted for both the urea fertilizers treated. They were stored for a period of 90 days under standard conditions in a climate-controlled cabinet. The NBPT and DMPSA content was determined at time intervals.

Structures are written as SMILES. ≈ marks a conversion by molar mass, not a printed value.

`CCCCCC(CO)CCC` (stereo not shown) [2-Propylheptan-1-ol]: the water solubility in data set [1] is 58 µg/mL (≈ 366 µM). For `Cc1c[nH]nc1C.O=P(O)(O)O` [DMPP, 3,4-dimethylpyrazole phosphate, reference compound], in data set [2], the degradation characteristics entry is given as “rapid degradation characteristics” and the amount broken down result is “about 50%”. As to `Cc1cn(C(CC(=O)O)C(=O)O)nc1C` (stereo not shown) [DMPSA, 2-(N-3,4-dimethylpyrazole)succinic acid], the “decrease in NBPT and DMPSA content over time” value in data set [3] is reported as “significantly smaller”. Turning to `CCCCNP(N)(N)=S` [NBPT, N-(n-butyl)-thiophosphoric acid triamide], in data set [2], the degradation characteristics result is “rapid degradation characteristics” and the amount broken down came out at 100%. The “decrease in NBPT and DMPSA content over time” value in data set [3] is given as “significantly smaller”.
